Tested on: human genome (hg18)
Assay: ChIP-Seq of DUX4 binding sites in transduced primary myoblasts
Details: for max.cov (peak height): non-repeat binding site
Protocol: Non-redundant reads unambiguously mapped to the human genome were computationally extended to a total length of 200 nucleotides and “peaks” were defined as regions where the number of reads was higher than a statistical threshold compared to the background, as described below. Reads mapping to the X and Y chromosomes were excluded from the analysis.
ChIP was performed and ChIP DNA samples were prepared as previously described in Cao et al., Dev. Cell 18:662-674 (2010), hereby incorporated herein by reference. […] Anti-DUX4 N-terminus polyclonal antibodies FH106 and FH107 were combined to immunoprecipitate DUX4-s. The samples were sequenced with Illumina Genome Analyzer II.
Sequences were extracted by Illumina package GApipeline and reads were aligned using BWA to the human genome (hg18). The inventors only kept one of the duplicated sequences to minimize the artifacts of PCR amplification. Each read was extended in the sequencing orientation to a total of 200 bases to infer the coverage at each genomic position. Peak calling was performed by a house developed R package “peakSig” (pending submission to Bioconductor), which model background reads by a negative binomial distribution. The negative binomial distribution can be viewed as a continuous mixture of Poisson distribution where the mixing distribution of the Poisson rate is modeled as a Gamma prior. This prior distribution is used to capture the variation of background reads density across the genome. Model parameters were estimated by fitting the truncated distribution on the number of bases with low coverage (one to three), to avoid the problem of inferring effective genome size excluding the non-mappable regions, and to eliminate contamination of any foreground signals in the high coverage regions. The inventors also fit a GC dependent mixture model so that the significance of the peaks is determined not only by peak height, but also by the GC content of the neighboring genomic regions.
Discriminative motif discovery was carried out as described in Palii et al. (2011), in which motifs were identified that distinguish a positive and a negative sequence dataset, which in this study, the positive sequences correspond to Dux4 binding sites and negative sequences correspond to the randomly sampled flanking regions of Dux4 binding sites. To generate more accurate presentation of the Dux4 binding sites from the consensus pattern returned by this analysis, the inventors tried to learn a positional weight matrix (PWM) model, using the matches of the consensus pattern as the seed to initialize the iterative expectation-maximization (EM) refinement process similar to MEME. If appropriate, the motifs are extended iteratively as long as there is sequence preference in the flanking region, and refined in the same EM process.
The inventors associated a peak to its closest TSS within the region flanked by CTCF binding sites, which were identified in a ChIP-seq experiment on human CD4+ T cells (GEO accession number GSE12889/GSM325895).

DUX4-fl: full-length DUX4 protein (SEQ ID NO:110), expressed from lentiviral or pCS2 vectors or in vitro translated
enrichment of binding in the MaLR family of retrotransposons: ~10 fold | share of sequences under the peaks with a second larger (LTR) motif: Approximately 30% | number of ChIP-Seq peaks (P-value threshold 10^−10, background peaks subtracted): 62,028 peaks | number of ChIP-Seq peaks (P-value threshold 10^−15, background peaks subtracted): 39,737 peaks | share of peaks with motif TAAYBBAATCA near the center (de novo motif analysis): greater than 90% | max.cov (peak height) (AVPI1, chr10, dist2tss 126): 56 | max.cov (peak height) (BZW2, chr7, dist2tss 1939): 63 | max.cov (peak height) (BZW2, chr7, dist2tss 1955): 86 | max.cov (peak height) (C1orf63, chr1, dist2tss −1326): 132 | max.cov (peak height) (C6orf191, chr6, dist2tss 61): 250 | max.cov (peak height) (C14orf102, chr14, dist2tss −558): 159 | max.cov (peak height) (C14orf138, chr14, dist2tss 326): 53 | max.cov (peak height) (C14orf138, chr14, dist2tss −4696): 50 | max.cov (peak height) (C21orf91, chr21, dist2tss −803): 274 | max.cov (peak height) (CBARA1, chr10, dist2tss 2340): 70 | max.cov (peak height) (CBARA1, chr10, dist2tss 4786): 250 | max.cov (peak height) (CCNA1, chr13, dist2tss 1874): 58 | max.cov (peak height) (CCNA1, chr13, dist2tss −2425): 56 | max.cov (peak height) (CCNJ, chr10, dist2tss −637): 265 | max.cov (peak height) (CLDN14, chr21, dist2tss −2523): 96 | max.cov (peak height) (CLK1, chr2, dist2tss 4634): 163 | max.cov (peak height) (CSE1L, chr20, dist2tss −1935): 57 | max.cov (peak height) (CSE1L, chr20, dist2tss −5914): 53 | max.cov (peak height) (CTNNAL1, chr9, dist2tss 641): 198 | max.cov (peak height) (CTR9, chr11, dist2tss 1913): 46 | max.cov (peak height) (DBR1, chr3, dist2tss 3981): 117 | max.cov (peak height) (DDX47, chr12, dist2tss −4416): 55 | max.cov (peak height) (DEFB103A, chr8, dist2tss −2289): 55 | max.cov (peak height) (DENND2C, chr1, dist2tss −3169): 116 | max.cov (peak height) (EGLN1, chr1, dist2tss −1): 205 | max.cov (peak height) (EXOSC10, chr1, dist2tss 150): 139 | max.cov (peak height) (FAM90A1, chr12, dist2tss −1597): 129 | max.cov (peak height) (FBXO33, chr14, dist2tss −2226): 117 | max.cov (peak height) (FRG2B, chr10, dist2tss 598): 200 | max.cov (peak height) (GPBAR1, chr2, dist2tss −224): 150 | max.cov (peak height) (GTF2F1, chr19, dist2tss 134): 83 | max.cov (peak height) (HOXB2, chr17, dist2tss −2471): 283 | max.cov (peak height) (JUP, chr17, dist2tss −701): 177 | max.cov (peak height) (KDM5B, chr1, dist2tss 301): 93 | max.cov (peak height) (KIF21A, chr12, dist2tss −1030): 37 | max.cov (peak height) (KIF21A, chr12, dist2tss −4249): 73 | max.cov (peak height) (MAPKAP1, chr9, dist2tss 3619): 153 | max.cov (peak height) (MAPKAP1, chr9, dist2tss −4397): 69 | max.cov (peak height) (MAST4, chr5, dist2tss −1253): 269 | max.cov (peak height) (MED13, chr17, dist2tss −2755): 43 | max.cov (peak height) (NANS, chr9, dist2tss 1843): 85 | max.cov (peak height) (NFYA, chr6, dist2tss 49): 159 | max.cov (peak height) (PABPN1, chr14, dist2tss −529): 257 | max.cov (peak height) (PANX2, chr22, dist2tss −2040): 118 | max.cov (peak height) (PELI1, chr2, dist2tss 4936): 85 | max.cov (peak height) (PNP, chr14, dist2tss −104): 344 | max.cov (peak height) (PPP2R2B, chr5, dist2tss 2498): 91 | max.cov (peak height) (PRAMEF12, chr1, dist2tss −1230): 99 | max.cov (peak height) (PRPF18, chr10, dist2tss 3230): 57 | max.cov (peak height) (PRR4, chr12, dist2tss 83): 54 | max.cov (peak height) (PTP4A1, chr6, dist2tss −2227): 105 | max.cov (peak height) (PVRL3, chr3, dist2tss 2678): 51 | max.cov (peak height) (RBBP6, chr16, dist2tss −1619): 76 | max.cov (peak height) (RBBP6, chr16, dist2tss −1922): 323 | max.cov (peak height) (RBBP6, chr16, dist2tss −4040): 46 | max.cov (peak height) (RFPL1, chr22, dist2tss −3042): 124 | max.cov (peak height) (RFPL2, chr22, dist2tss 3057): 129 | max.cov (peak height) (RFPL2, chr22, dist2tss −2853): 118 | max.cov (peak height) (RFPL4B, chr6, dist2tss −321): 232 | max.cov (peak height) (RTN4, chr2, dist2tss 1853): 115 | max.cov (peak height) (RTN4, chr2, dist2tss −2562): 52 | max.cov (peak height) (SAMD8, chr10, dist2tss 3338): 43 | max.cov (peak height) (SEC61A2, chr10, dist2tss −1861): 172 | max.cov (peak height) (SFRS2B, chr11, dist2tss 42): 373 | max.cov (peak height) (SH3GL2, chr9, dist2tss −4600): 88 | max.cov (peak height) (SIAH1, chr16, dist2tss −2337): 118

Source: US20140242093A1, “METHODS AND COMPOSITIONS FOR MODULATING THE INNATE IMMUNE RESPONSE AND/OR MYOGENESIS IN A MAMMALIAN SUBJECT” (FRED HUTCHINSON CANCER RESEARCH CENTER, priority 2011, published 2014)
